# Data as given in patent US10016432B2 (Legacy Emanuel Hospital & Health Center, priority 2016, dated 2018).
# Where “and” joins values, the source holds several entries; their conditions need not be identical. Equal entries are not always repeated. Entries after “also recorded” stand apart in the source; their conditions may differ.
# Legend:
# hAdK [1] = target: T1, hAdK (Homo sapiens, UniProt P55263); settings: read-out: Km as substrate of hAdK; cited from earlier work
# T1 construct: purchased
# human P2Y2 = target: T2, human P2Y2 (Homo sapiens, UniProt P41231); experiment: calcium transients, P2Y2 in 1321N1 astrocytoma cells; type: cell-based; settings: 10 μM
# T2 construct: expressed in transfected cells; host or cells: 1321N1 astrocytoma cells
# Text: (§1) It is possible that transient treatment with AdK inhibitors would have long-lasting therapeutic benefits for treatment of CNS disorders, not only by raising the basal level of AR activation but also through epigenetic reprogramming. […] SAH in turn inhibits DNA methyltransferases through product inhibition. Because the epigenetic effects related to changes in the DNA methylation status would persist, it might be possible to reduce the duration of drug administration, thus avoiding toxicities associated with prolonged, chronic dosing. A transient dosing regimen might also avoid possible side effects, such as liver toxicity. Compound 38a was submitted to the Psychoactive Drug Screening Program (PDSP) for screening at 45 receptors, channels and transporters. […] Nevertheless, the offtarget interactions of the present set of compounds would have to be examined more extensively.
# hAdK [2] = target: T1, hAdK; experiment: commercial nonisotopic spectrophotometric hAdK kinetic activity assay (340 nm, inosine as substrate); type: biochemical
# Method: The nucleoside derivatives were tested for inhibitory activity at hAdK using a commercial, nonisotopic assay for the measurement of hAdK kinetic activity based on continuous monitoring of enzymatic activity at 340 nm (appearance of reduced nicotinamide-adenine dinucleotide from a coupled enzymatic reaction). The hAdK-catalyzed phosphorylation of inosine to inosine 5′-monophosphate is coupled to the inosine 5′-monophosphate dehydrogenase-dependent oxidation of the product. […] Percent inhibition of hAdK activity was calculated by determining the slope of the hAdK reaction during the linear phase of the enzymatic reaction (first 40 min) (see Table 1, below). […] Each inhibitor was analyzed at the following concentrations (μM): of 50, 20, 1, 0.50, 0.10, 0.020 and 0.010.
# [3] = side effects: mouse activity in an open field; type: in vivo, mice; settings: epigenetically active dose, i.p.
# Method: Side effects were indexed by mouse activity in an open field for 20 minutes following a single i.p. injection of vehicle, 5-ITU or compound 38a. […] Data are presented as the mean±SEM and analyzed by one-way ANOVA then uncorrected Fisher's LSD test with all comparisons relative to vehicle or Kruskal-Wallis then Dunn's multiple comparisons.
# ADK-null cells = experiment: DNA methylation in ADK-null cells (off-target); type: cell-based; settings: vs vehicle
# Text: To test for nonspecific activities of ADK inhibitors on DNA methylation, we tested our set of inhibitors on ADK-null cells, which are hypomethylated and can be used to identify treatments that increase DNA methylation (whereas ADK-L cells display a hypermethylated ceiling effect).
# [4] = target: T3, protease-activated receptor (PAR)1 (Homo sapiens, UniProt P25116); experiment: PAR1 agonist/antagonist test in mouse KOLF cells; type: cell-based; settings: 10 μM
# T3 construct: expressed in transfected cells; host or cells: mouse KOLF cells
# T3 sequence (P25116 22-425): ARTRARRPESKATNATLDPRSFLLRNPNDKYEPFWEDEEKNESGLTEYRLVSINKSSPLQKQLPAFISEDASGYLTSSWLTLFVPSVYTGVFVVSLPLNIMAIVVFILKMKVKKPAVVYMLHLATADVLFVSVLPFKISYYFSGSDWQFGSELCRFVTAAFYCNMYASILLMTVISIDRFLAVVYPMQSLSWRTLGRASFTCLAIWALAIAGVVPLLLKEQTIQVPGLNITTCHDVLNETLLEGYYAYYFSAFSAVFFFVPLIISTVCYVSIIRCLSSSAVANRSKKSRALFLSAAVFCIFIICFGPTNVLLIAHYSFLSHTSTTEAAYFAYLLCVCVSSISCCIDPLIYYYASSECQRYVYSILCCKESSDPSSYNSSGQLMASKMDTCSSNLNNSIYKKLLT
# Text: as §1
# human P2Y11 = target: T4, human P2Y11 (Homo sapiens, UniProt Q96G91); experiment: calcium transients, P2Y11 in 1321N1 astrocytoma cells; type: cell-based; settings: 10 μM
# T4 construct: expressed in transfected cells; host or cells: 1321N1 astrocytoma cells
# T4 sequence (Q96G91 1-374): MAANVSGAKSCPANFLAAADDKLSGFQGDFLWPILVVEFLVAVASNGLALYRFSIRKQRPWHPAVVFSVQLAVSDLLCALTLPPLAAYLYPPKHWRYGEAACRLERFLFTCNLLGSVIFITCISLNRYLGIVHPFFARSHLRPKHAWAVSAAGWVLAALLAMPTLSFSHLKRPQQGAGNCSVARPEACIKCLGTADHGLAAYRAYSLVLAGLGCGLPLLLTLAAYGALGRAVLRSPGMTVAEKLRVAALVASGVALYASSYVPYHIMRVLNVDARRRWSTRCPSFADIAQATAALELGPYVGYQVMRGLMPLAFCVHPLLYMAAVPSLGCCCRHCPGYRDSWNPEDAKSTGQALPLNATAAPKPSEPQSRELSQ
# Text: as §1
# [5] = test system: Hippocampal DNA methylation; experiment: hippocampal / brain DNA methylation in treated mice; type: in vivo, Swiss Webster mice; settings: 3.1 mg/kg i.p., 3 doses every 12 hours, 1 hour after 3rd dose, vs controls
# Method: (§2) Epigenetic activity in the brain. […] Tissue was harvested 1 hour after the 3rd dose.
# human P2Y1 = target: T5, human P2Y1 (Homo sapiens, UniProt P47900); experiment: calcium transients, P2Y1 in 1321N1 astrocytoma cells; type: cell-based; settings: 10 μM
# T5 construct: expressed in transfected cells; host or cells: 1321N1 astrocytoma cells
# Text: as §1
# [6] = polarity judged by tendency to dissolve in organic solvents; type: physicochemical; settings: based on tendency to dissolve in organic solvents
# Text: The bioavailability and the in vivo activity of these inhibitors remain to be determined. Other nucleoside derivatives were protective in seizure models when administered peripherally. […] Among the new (S)-methanocarba AdK inhibitors, 5′-deoxy analogue 38a and especially the fluoro analogues 38b and 38c appear to be the least polar, based on their tendency to dissolve in organic solvents.
# [7] = test system: 45 receptors, channels and transporters; experiment: PDSP screening at 45 receptors, channels and transporters (other off-target sites); type: binding; settings: 10 μM
# Text: as §1
# [8] = target: human 5HT7 (serotonin) receptor (Homo sapiens, UniProt P34969); experiment: PDSP radioligand binding, 5HT7; settings: read-out: Ki, inhibition of radioligand binding
# Text: as §1
# human P2Y4 = target: T6, human P2Y4 (Homo sapiens, UniProt P51582); experiment: calcium transients, P2Y4 in 1321N1 astrocytoma cells; type: cell-based; settings: 10 μM
# T6 construct: expressed in transfected cells; host or cells: 1321N1 astrocytoma cells
# Text: as §1
# ADK-L cells = experiment: DNA methylation (5 mC ELISA) in ADK-L cells; parameters: reduction of DNA methylation in ADK-L cells: dose or concentration left out as unconfirmed; settings: 24 hours
# Method: The in vitro IC50 for each conventional ADK inhibitor was selected as the treatment dose. […] Purified genomic DNA (100 ng) was run on a 5-methylcytosine (5 mC) ELISA. Data shown in FIG. 11 are represented as the mean±SEM (n=8-9) and analyzed by one-way ANOVA followed by Tukey's multiple comparisons test (C) or Krus-kal-Wallis test followed by uncorrected Dunn's test with all comparisons relative to ADK-L vehicle (D).
# ADK-S cells = experiment: DNA methylation in ADK-S cells
# DNMT activity = DNMT activity in brain nuclear protein extracts of treated mice; type: in vivo, Swiss Webster mice; settings: 3.1 mg/kg i.p., 3 doses every 12 hours, 1 hour after 3rd dose, vs vehicle
# Method: as §2
# T1 sequence (P55263 whole entry): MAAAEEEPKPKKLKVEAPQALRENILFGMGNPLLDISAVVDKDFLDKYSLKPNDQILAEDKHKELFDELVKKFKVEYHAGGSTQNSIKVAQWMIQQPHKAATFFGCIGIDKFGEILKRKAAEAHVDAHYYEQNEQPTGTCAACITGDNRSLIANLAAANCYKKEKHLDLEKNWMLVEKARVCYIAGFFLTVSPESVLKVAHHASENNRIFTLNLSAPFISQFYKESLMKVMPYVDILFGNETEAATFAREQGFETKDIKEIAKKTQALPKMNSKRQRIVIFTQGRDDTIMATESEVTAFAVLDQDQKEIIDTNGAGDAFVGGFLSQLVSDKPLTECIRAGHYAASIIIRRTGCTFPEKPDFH
# Sequence of human 5HT7 (serotonin) receptor (P34969 whole entry): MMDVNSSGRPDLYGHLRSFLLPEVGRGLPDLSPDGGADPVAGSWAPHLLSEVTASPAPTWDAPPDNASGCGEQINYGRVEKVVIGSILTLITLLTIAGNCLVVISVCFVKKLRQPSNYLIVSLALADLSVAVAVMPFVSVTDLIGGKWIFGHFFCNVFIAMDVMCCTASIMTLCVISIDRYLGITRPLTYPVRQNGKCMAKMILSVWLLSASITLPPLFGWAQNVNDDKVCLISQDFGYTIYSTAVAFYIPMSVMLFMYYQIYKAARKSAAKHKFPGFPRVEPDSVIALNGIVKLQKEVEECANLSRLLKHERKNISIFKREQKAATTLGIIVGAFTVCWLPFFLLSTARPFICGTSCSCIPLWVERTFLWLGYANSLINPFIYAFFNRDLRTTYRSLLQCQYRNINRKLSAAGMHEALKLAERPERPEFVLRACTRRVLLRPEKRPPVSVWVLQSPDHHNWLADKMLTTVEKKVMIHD
# T5 sequence (P47900 whole entry): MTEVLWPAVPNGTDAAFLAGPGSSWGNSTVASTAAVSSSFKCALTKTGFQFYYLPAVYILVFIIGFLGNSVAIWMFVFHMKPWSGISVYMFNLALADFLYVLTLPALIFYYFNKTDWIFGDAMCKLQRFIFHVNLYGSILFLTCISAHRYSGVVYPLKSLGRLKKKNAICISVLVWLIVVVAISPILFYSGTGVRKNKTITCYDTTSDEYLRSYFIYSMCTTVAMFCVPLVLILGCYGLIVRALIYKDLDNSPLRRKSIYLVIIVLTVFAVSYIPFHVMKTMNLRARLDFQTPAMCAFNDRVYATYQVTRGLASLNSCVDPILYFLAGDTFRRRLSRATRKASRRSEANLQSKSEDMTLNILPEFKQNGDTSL
# T2 sequence (P41231 whole entry): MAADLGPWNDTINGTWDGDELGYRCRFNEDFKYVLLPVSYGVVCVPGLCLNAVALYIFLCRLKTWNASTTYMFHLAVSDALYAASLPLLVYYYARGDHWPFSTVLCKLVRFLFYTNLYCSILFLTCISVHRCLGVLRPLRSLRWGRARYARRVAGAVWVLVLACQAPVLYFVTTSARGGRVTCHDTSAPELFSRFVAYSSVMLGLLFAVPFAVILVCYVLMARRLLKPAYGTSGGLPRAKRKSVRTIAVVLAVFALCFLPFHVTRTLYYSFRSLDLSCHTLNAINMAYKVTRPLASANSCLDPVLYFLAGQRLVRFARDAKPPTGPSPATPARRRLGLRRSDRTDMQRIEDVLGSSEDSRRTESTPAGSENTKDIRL
# T6 sequence (P51582 whole entry): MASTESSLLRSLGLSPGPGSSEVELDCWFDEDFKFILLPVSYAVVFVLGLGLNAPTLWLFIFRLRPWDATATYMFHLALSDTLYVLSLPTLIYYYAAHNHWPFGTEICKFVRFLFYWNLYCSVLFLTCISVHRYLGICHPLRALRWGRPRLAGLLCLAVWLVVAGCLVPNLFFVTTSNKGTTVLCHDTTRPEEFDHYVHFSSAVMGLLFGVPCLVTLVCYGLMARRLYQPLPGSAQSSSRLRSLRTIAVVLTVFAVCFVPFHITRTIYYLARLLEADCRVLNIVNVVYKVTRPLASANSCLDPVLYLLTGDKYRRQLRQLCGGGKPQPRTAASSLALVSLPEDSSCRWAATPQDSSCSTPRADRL
structure (smiles),measurement,setting,value
Nc1ncnc2c1ncn2[C@@H]1O[C@H](CO)[C@@H](O)[C@H]1O [adenosine],Km,hAdK [1],0.7 µM
C[C@@H]1[C@@H](O)[C@@H](O)[C@@]2(n3cc(-c4ccccc4)c4c(Nc5ccccc5)ncnc43)C[C@@H]12 [Compound 38a],agonist or antagonist activity at P2Y2,human P2Y2,inactive
same,"hAdK inhibition, in words",hAdK [2],commensurate with 2 at most concentrations
same,concentration at which inhibition begins to vary significantly from 2,hAdK [2]; Bonferroni post hoc vs 2,never significantly varied from 2
same,potency relative to reference compound 2,hAdK [2]; hAdK inhibition,approximately two-fold less potent
same,IC50,"hAdK [2]; hAdK, inosine as substrate, read-out: IC50 for hAdK",< 100 nM and 88 nM
same,sedation / sedative side effects,[3],not associated with any overt signs of sedation
same,effect on DNA methylation in ADK-null cells (non-specific),ADK-null cells,greater specificity
same,effect on DNA methylation in ADK-null cells (non-specific),ADK-null cells; listed as 38A,no effect on DNA methylation; also recorded: without any off-target effects
same,agonist or antagonist activity at PAR1,[4],inactive
same,agonist or antagonist activity at P2Y11,human P2Y11,inactive
same,hippocampal (brain) DNA methylation levels,[5],reduced
same,hippocampal (brain) DNA methylation levels,[5]; listed as 38A,reduced; also recorded: reduces DNA methylation in the hippocampus
same,agonist or antagonist activity at P2Y1,human P2Y1,inactive
same,polarity,[6],least polar
same,inhibition of binding at the other off-target sites,[7],< 50%
same,Ki,[8],710 nM
same,agonist or antagonist activity at P2Y4,human P2Y4,inactive
same,"effect on DNA methylation in ADK-L cells, in words","ADK-L cells; 55 and 38a at 26 nM, known inhibitors at their IC50",reduces DNA methylation specifically in ADK-L cells
same,reduction of DNA methylation in ADK-L cells,"ADK-L cells; […] nM (equimolar), vs ADK-L vehicle",> 50%
same,effect on DNA methylation in ADK-S cells,ADK-S cells,without any off-target effects
same,DNMT activity in brain nuclear protein extracts,DNMT activity,significantly reduced
same,DNMT activity in brain nuclear protein extracts,DNMT activity; listed as 38A,reduced
